Experimental data from patent publication EP4745138A1, “THIO-GLUTARIMIDO ISOINDOLINONE DERIVATIVE, BIFUNCTIONAL PROTEIN DEGRADER CONTAINING SAME, AND USES THEREOF” (Gluetacs Therapeutics (Shanghai) Co., Ltd., priority 2023, dated 2025).
Like-named read-outs stand apart in the source and are kept apart here.

Columns and labels:
HCC827 = assay: Tumor cell proliferation inhibition (CellTiter-Meiluncell Luminescent Cell Viability Assay); conditions: Homo sapiens, 96 hours, Table I-1, designed based on the ALK inhibitors, read-out: Inhibitory activity (IC50, nM) HCC827
Protocol: (§1) The tumor cells used herein were cultured in a cell culture medium listed in table 3 at 37°C in an incubator with 5% CO2. Prior to experimentation, all cell lines used were correctly identified by STR profiling, and tested negative for mycoplasma contamination using a mycoplasma detection kit through routine screenings. Table 3. Tumor cells and cell culture medium used in the present disclosure
(§2) The IC50 values of the compounds of the present disclosure (including the compounds in Table 1, Table 2, and Examples) were determined using the CellTiter-Meiluncell Luminescent Cell Viability Assay Kit from Dalian Meilun Biotech Co., Ltd. The detailed procedure is as follows: Tumor cells were seeded in 96-well cell culture plates at the densities specified in Table 4. On the following day, the test compounds of the present disclosure were subjected to serial dilution. […] Subsequently, 0.5 µL of the test compound dilution was transferred into the 96-well plate containing the cells, with each well containing 100 µL of cell culture medium. […] Into the 96-well plate, the diluted test compounds and corresponding detection reagents were added, resulting in final test compound concentrations of 500 nM and 10 nM, respectively. The experimental procedure is described below using the diluted 2 µM test compound as an example.
(§3) 0.5 µL of the aforementioned diluted compound of the present disclosure (including the compounds in Table 1, Table 2, and Examples) was added to the seeded cells in 100 µL of medium, yielding a final test compound concentration of 10 nM. After the cells were treated with the compounds of the present disclosure for a specified period, the cell viability assay reagent was added to the culture medium according to the kit's instructions to determine cell viability. […] All controls were treated using the same procedure as the compounds of the present disclosure. […] Seeding protocol and treatment time for tumor cells

SR = assay: as above; conditions: Homo sapiens, 96 hours, Table I-1, designed based on the ALK inhibitors, read-out: Inhibitory activity (IC50, nM) SR
Protocol: as §1, §2, §3

ALK = biological target: T1, ALK (Homo sapiens, UniProt Q96SW2+Q9HC35+Q9UM73); assay: Western blot, target protein degradation in H2228 Cell; format: cell-based; conditions: substrate protein remaining %, treated at 500 nM and 50 nM, 24 hours
T1 construct: endogenous in cells; host or cells: H2228
Protocol: (§4) Conventional Western blot assay was performed to evaluate the effects of the compounds of the present disclosure on the expression of target proteins in cells.
(§5) (1) Cell Seeding and Protein Harvesting: The selected cells were processed according to the cell seeding procedure and protein harvesting procedure in Table II-2. Table II-2 Cell Seeding and Protein Harvesting Procedures
(§6) (2) To the collected supernatant, 5X SDS sample loading buffer was added, followed by denaturation at 95°C for 5 minutes. The denatured samples were then separated by SDS-PAGE electrophoresis on a polyacrylamide gel. Proteins were transferred to a nitrocellulose membrane (0.45 µm NC membrane), blocked with blocking buffer at room temperature for 1 hour, and subjected to antibody incubation and development procedures according to the antibody manufacturer's instructions (Cell Signaling Technology).
(§7) Half-Maximal Degradation Concentration value (the drug concentration required for degrading proteins by 50%, abbreviated as DC50) reads method: comparing the grayscale values of Western blot bands from drug-treated samples with those from blank DMSO-treated controls, and identifying the drug concentration range at which the grayscale value is half that of the DMSO-treated control bands.
(§8) DC50 values can be calculated using ImageJ software to measure grayscale values of Western blot bands from drug-treated samples. The concentration-response curve is fitted to estimate the drug concentration corresponding to half the grayscale value.
(§9) Target protein remaining (%) refers to the percentage of target protein remaining in cells after treatment with protein degrader compounds.
(§10) Calculation method for target protein remaining (%): Use ImageJ software to measure grayscale values of Western blot bands from drug (protein degrader)-treated samples. The grayscale value of drug-treated bands is divided by that of internal control protein bands, and the resulting quotient is normalized to obtain the relative percentage of remaining target protein after protein degrader treatment. Target protein degradation rate(%) = 1−target protein remaining(%). [formula]

[1] = biological target: T2, human Cereblon WT GST-tagged protein (Homo sapiens, UniProt Q96SW2); assay: CRBN-binding affinity, HTRF (CEREBLON BINDING kit); conditions: for inhibition at 0.5 µM: read-out: Inhibition Rate at 0.5 µM (%); for inhibition at 2 µM: read-out: Inhibition Rate at 2 µM (%)
T2 construct: purchased CISBIO 64BDCRBNPEH
Method in brief: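 Readout is homogeneous time-resolved fluorescence, measuring displacement of a thalidomide-red tracer from GST-tagged Cereblon detected by a europium anti-GST antibody. Compounds were tested at final 2 µM and 0.5 µM after dilution in diluent #9 (1X).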

JEKO-1 = assay: Tumor cell proliferation inhibition (CellTiter-Meiluncell Luminescent Cell Viability Assay); format: cell-based; conditions: Homo sapiens, 96 hours; for inhibition at 0.01 µM: 10 nM, read-out: Inhibition Rate at 10 nM (%); for inhibition at 0.5 µM: 500 nM, read-out: Inhibition Rate at 500 nM (%)
Method in brief: (§11)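 Following overnight seeding, tumor cells received serial compound dilutions to final levels that included 10 nM and 500 nM. Viability was assessed by luminescence at the end of the specified exposure time. Cultures were kept at 37°C with 5% CO2.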

MM.1S = assay: as above; format: cell-based; conditions: Homo sapiens, MM1.S, MM.1S, 96 hours; for inhibition at 0.01 µM: 10 nM, read-out: Inhibition Rate at 10 nM (%); for inhibition at 0.5 µM: 500 nM, read-out: Inhibition Rate at 500 nM (%)
Method in brief: as §11

MV-4-11 = assay: as above; format: cell-based; conditions: Homo sapiens, 96 hours; for inhibition at 0.01 µM: MV4-11, 10 nM, read-out: Inhibition Rate at 10 nM (%); for inhibition at 0.5 µM: MV4-11, 500 nM, read-out: Inhibition Rate at 500 nM (%)
Method in brief: as §11

SW620 = assay: as above; format: cell-based; conditions: Homo sapiens, 96 hours, Table I-6, IRAK4 inhibitors
Method in brief: as §11

IRAK4 = biological target: T3, IRAK4 (Homo sapiens, UniProt Q9NWZ3); assay: Western blot, target protein degradation in hPBMC Cell; format: cell-based; conditions: substrate protein remaining %, treated at 50 nM and 500 nM, 24 hours
T3 construct: endogenous in cells; host or cells: hPBMC
Protocol: as §4, §5, §6, §7, §8, §9, §10

CDK2 = biological target: T4, CDK2 (Homo sapiens, UniProt P24941); assay: as above; format: cell-based; conditions: treated at 50 nM and 500 nM, 24 hours
T4 construct: the expression of target proteins in cells; endogenous in cells; host or cells: hPBMC
Protocol: as §4, §5, §6, §7, §8, §9, §10

A375 = assay: Tumor cell proliferation inhibition (CellTiter-Meiluncell Luminescent Cell Viability Assay); format: cell-based; conditions: Homo sapiens, 96 hours, Table I-2, ALK inhibitors
Method in brief: (§12)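 Luminescent viability read-out (CellTiter-Meiluncell) after compound exposure for a specified time; IC50 determined. Seeding was done the day before dosing with serially diluted compound, final concentrations including 500 nM and 10 nM. Culture at 37°C, 5% CO2.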

CFPAC-1 = assay: as above; format: cell-based; conditions: Homo sapiens, 96 hours, Table I-2, ALK inhibitors
Method in brief: as §12

MCF-7 = assay: as above; format: cell-based; conditions: Homo sapiens, 96 hours, Table I-2, ALK inhibitors
Method in brief: as §11

T2 sequence (Q96SW2 whole entry): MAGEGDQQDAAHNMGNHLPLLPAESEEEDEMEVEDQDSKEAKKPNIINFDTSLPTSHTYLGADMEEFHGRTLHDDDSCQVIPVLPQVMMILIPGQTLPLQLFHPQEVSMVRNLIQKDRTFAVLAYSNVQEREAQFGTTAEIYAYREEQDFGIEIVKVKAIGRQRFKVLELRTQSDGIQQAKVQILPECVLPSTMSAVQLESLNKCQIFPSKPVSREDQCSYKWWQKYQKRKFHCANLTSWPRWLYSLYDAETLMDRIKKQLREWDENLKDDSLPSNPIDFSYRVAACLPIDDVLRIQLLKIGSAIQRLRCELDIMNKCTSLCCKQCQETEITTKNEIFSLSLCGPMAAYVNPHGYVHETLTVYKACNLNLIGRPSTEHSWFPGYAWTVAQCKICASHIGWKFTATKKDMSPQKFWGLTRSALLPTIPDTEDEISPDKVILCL
T3 sequence (Q9NWZ3 whole entry): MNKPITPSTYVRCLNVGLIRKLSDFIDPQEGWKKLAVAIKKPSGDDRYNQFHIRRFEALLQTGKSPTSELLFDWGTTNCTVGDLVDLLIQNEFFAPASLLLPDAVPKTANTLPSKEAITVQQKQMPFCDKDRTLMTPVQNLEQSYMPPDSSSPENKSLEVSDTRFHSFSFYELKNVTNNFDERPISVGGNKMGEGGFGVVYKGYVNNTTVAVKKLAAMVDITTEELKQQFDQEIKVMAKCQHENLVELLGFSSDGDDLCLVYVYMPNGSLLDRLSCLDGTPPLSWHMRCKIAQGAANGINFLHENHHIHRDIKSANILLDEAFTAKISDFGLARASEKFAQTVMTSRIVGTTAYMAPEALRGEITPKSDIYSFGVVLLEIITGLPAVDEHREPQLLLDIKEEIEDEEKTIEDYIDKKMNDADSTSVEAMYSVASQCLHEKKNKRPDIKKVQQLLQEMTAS
T1 sequence (Q9HC35+Q9UM73 fused): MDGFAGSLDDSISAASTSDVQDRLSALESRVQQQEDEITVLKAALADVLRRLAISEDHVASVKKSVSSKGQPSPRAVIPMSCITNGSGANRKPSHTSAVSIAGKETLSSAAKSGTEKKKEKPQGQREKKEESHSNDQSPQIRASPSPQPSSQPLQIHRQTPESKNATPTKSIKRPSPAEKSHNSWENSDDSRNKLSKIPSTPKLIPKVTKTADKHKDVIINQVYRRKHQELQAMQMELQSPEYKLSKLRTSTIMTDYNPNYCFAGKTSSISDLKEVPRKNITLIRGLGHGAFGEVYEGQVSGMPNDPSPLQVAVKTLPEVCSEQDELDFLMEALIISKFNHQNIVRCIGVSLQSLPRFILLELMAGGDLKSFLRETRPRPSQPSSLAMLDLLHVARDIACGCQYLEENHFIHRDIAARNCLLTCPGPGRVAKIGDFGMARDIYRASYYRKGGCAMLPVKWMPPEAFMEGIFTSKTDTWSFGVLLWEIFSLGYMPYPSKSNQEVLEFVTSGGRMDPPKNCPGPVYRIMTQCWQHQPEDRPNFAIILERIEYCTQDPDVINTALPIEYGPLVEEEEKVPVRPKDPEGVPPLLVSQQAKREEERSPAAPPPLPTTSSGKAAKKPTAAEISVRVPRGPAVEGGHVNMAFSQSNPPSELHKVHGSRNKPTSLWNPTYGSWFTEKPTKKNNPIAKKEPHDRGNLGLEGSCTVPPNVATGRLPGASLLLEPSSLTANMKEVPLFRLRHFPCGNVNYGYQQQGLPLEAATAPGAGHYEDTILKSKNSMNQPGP
T1 sequence (Q96SW2 whole entry): as the sequence (Q96SW2 whole entry) above
T1 sequence (Q16531 whole entry partner): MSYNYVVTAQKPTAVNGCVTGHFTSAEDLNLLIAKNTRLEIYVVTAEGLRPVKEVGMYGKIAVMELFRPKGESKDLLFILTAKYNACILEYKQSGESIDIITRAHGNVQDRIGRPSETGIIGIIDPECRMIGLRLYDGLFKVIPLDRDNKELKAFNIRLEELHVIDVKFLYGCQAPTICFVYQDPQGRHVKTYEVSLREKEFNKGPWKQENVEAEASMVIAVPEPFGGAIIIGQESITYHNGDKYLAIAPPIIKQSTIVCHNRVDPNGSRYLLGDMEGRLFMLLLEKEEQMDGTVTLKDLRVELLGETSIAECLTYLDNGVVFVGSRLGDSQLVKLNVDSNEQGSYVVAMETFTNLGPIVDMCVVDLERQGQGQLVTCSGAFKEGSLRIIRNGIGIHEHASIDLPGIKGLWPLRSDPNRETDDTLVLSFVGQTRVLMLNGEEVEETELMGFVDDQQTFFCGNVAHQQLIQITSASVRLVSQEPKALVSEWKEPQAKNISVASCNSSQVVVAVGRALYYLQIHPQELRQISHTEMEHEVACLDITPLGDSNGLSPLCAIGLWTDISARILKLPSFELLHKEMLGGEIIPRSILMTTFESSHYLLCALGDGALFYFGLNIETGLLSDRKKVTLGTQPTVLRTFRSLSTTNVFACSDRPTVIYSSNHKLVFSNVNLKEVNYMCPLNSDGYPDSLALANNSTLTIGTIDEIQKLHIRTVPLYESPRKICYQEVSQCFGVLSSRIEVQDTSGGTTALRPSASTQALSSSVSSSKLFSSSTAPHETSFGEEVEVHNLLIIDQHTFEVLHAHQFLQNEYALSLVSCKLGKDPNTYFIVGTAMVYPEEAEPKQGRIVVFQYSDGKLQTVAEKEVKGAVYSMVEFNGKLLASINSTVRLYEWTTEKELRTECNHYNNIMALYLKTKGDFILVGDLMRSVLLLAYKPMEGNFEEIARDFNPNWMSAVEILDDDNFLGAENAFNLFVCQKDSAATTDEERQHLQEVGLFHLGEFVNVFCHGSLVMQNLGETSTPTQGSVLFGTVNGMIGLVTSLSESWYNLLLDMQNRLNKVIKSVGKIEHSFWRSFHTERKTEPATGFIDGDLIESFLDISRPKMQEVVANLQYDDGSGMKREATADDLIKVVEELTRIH

Row | Structure (SMILES) | IC50 (HCC827) [nM] | IC50 (SR) [nM] | inhibition at 0.5 µM [1] [%] | inhibition at 2 µM [1] [%] | Degradation of substrate protein IRAK4 (IRAK4) | inhibition at 0.01 µM (MM.1S; Table I-13, CDK2 inhibitors) [%] | inhibition at 0.5 µM (MM.1S; Table I-13, CDK2 inhibitors) [%] | inhibition at 0.01 µM (MV-4-11; Table I-13, CDK2 inhibitors) [%] | inhibition at 0.5 µM (MV-4-11; Table I-13, CDK2 inhibitors) [%] | Degradation of substrate protein CDK2 (CDK2) | other results
1 | CCc1cc2c(cc1N1CCC(N3CCN(Cc4ccc5c(c4)C(=S)N(C4CCC(=O)NC4=O)C5)CC3)CC1)C(C)(C)c1[nH]c3cc(C#N)ccc3c1C2=O (centres unmarked) [GT-05030, 8-(4-(4-((2-(2,6-dioxopiperidin-3-yl)-3-thioxoisoindolin-5-yl)methyl)piperazin-1-yl)piperidin-1-yl)-9-ethyl-6,6-dimethyl-11-oxo-6,11-dihydro-5H-benzo[b]carbazole-3-carbonitrile] | 500 to 1000 | 10 to 20 | 60 to 80 | 60 to 80 | – | – | – | – | – | – | Degradation of substrate protein ALK (ALK): A (0% ≤ substrate protein remaining % ≤ 80%)
2 | O=C1CCC(N2Cc3cc(CN4CCC(n5cc(NC(=O)c6coc(-c7ccnc(NCC(F)(F)F)c7)n6)c(C(F)F)n5)CC4)ccc3C2=S)C(=O)N1 (centres unmarked) [GT-05292, N-(3-(difluoromethyl)-1-(1-((2-(2,6-dioxopiperidin-3-yl)-1-thioxoisoindolin-5-yl)methyl)piperidin-4-yl)-1H-pyrazol-4-yl)-2-(2-((2,2,2-trifluoroethyl)amino)pyridin-4-yl)oxazole-4-carboxamide] | – | – | 20 to 30 | 60 to 80 | A (0% ≤ substrate protein remaining % ≤ 80%) | – | – | – | – | – | inhibition at 0.01 µM (JEKO-1; Table I-6, IRAK4 inhibitors): 30 to 40%; inhibition at 0.5 µM (JEKO-1; Table I-6, IRAK4 inhibitors): 80 to 100%; inhibition at 0.01 µM (MM.1S; Table I-6, IRAK4 inhibitors): 50 to 60%; inhibition at 0.5 µM (MM.1S; Table I-6, IRAK4 inhibitors): 80 to 100%; inhibition at 0.01 µM (MV-4-11; Table I-6, IRAK4 inhibitors): 80 to 100%; inhibition at 0.5 µM (MV-4-11; Table I-6, IRAK4 inhibitors): 80 to 100%; inhibition at 0.01 µM (SW620; SW-620, 10 nM, read-out: Inhibition Rate at 10 nM (%)): 70 to 80%; inhibition at 0.5 µM (SW620; SW-620, 500 nM, read-out: Inhibition Rate at 500 nM (%)): 80 to 100%
3 | CC(C)(O)c1cc2nn(C3CCN(Cc4ccc5c(c4)CN(C4CCC(=O)NC4=O)C5=S)CC3)cc2cc1NC(=O)c1cccc(C(F)(F)F)n1 (centres unmarked) [GT-05297, N-(2-(1-((2-(2,6-dioxopiperidin-3-yl)-1-thioxoisoindolin-5-yl)methyl)piperidin-4-yl)-6-(2-hydroxypropan-2-yl)-2H-indazol-5-yl)-6-(trifluoromethyl)picolinamide] | – | – | 60 to 80 | 80 to 100 | A (0% ≤ substrate protein remaining % ≤ 80%) | – | – | – | – | – | –
4 | Cc1ccsc1C(=O)n1nc(Nc2ccc(S(=O)(=O)N3CCN(Cc4ccc5c(c4)CN(C4CCC(=O)NC4=O)C5=S)CC3)cc2)nc1N (centres unmarked) [GT-08792, 3-(5-((4-((4-((5-amino-1-(3-methylthiophene-2-carbonyl)-1H-1,2,4-triazol-3-yl)amino)phenyl)sulfony 1)piperazin-1-yl)methyl)-1-thioxoisoindolin-2-yl)piperidine-2,6-dione] | – | – | 60 to 80 | 60 to 80 | – | 10 to 20 | 60 to 70 | 0 to 5 | 50 to 60 | Yes | –
5 | Cc1ccsc1C(=O)n1nc(Nc2ccc(S(=O)(=O)N3CCN(Cc4ccc5c(c4)C(=S)N(C4CCC(=O)NC4=O)C5)CC3)cc2)nc1N (centres unmarked) [GT-08798, 3-(6-((4-((4-((5-amino-1-(3-methylthiophene-2-carbonyl)-1H-1,2,4-triazol-3-yl)amino)phenyl)sulfony 1)piperazin-1-yl)methyl)-1-thioxoisoindolin-2-yl)piperidine-2,6-dione] | – | – | 53 to 60 | 60 to 80 | – | 10 to 20 | 50 to 60 | 20 to 30 | 60 to 70 | Yes | inhibition at 0.01 µM (JEKO-1; Table I-13, CDK2 inhibitors): 10 to 20%; inhibition at 0.5 µM (JEKO-1; Table I-13, CDK2 inhibitors): 60 to 70%
6 | C[C@H]1Oc2cc(cnc2N)-c2c(nn(C)c2C#N)CN(C)C(=O)c2ccc(F)cc21 [lorlatinib, reference compound] | > 10000 | > 10000 | – | – | – | – | – | – | – | – | inhibition at 0.01 µM (A375; A-375, 10 nM, read-out: Inhibition Rate at 10 nM (%)): 10 to 20%; inhibition at 0.5 µM (A375; A-375, 500 nM, read-out: Inhibition Rate at 500 nM (%)): 10 to 20%; inhibition at 0.01 µM (CFPAC-1; 10 nM, read-out: Inhibition Rate at 10 nM (%)): 10 to 20%; inhibition at 0.5 µM (CFPAC-1; 500 nM, read-out: Inhibition Rate at 500 nM (%)): 20 to 30%; inhibition at 0.01 µM (MCF-7; MCF7, 10 nM, read-out: Inhibition Rate at 10 nM (%)): 10 to 20%; inhibition at 0.5 µM (MCF-7; MCF7, 500 nM, read-out: Inhibition Rate at 500 nM (%)): 20 to 30%; inhibition at 0.01 µM (MM.1S; Table I-2, ALK inhibitors): -5 to 0%; inhibition at 0.5 µM (MM.1S; Table I-2, ALK inhibitors): -20 to -10%; inhibition at 0.01 µM (MV-4-11; Table I-2, ALK inhibitors): -20 to -10%; inhibition at 0.5 µM (MV-4-11; Table I-2, ALK inhibitors): -5 to 0%
